Data reported in PubChem BioAssay AID1963871 (Molecular Pharmacology Branch, DTP, NCI, 2024).
pIC50: −log10 of the molar value.

System: KRAS-mutant PDC multicell tumor spheroid viability
Assay: Anticancer human tumor 521955-158-R2-J5-PDC patient-derived pancreatic carcinoma cell line growth inhibition [KRAS2]
Settings: for pIC50: curve of first compound; for viability, T/C: stronger effect = lower value
In short: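 Combination screen of spheroid viability in tumor-cell co-cultures with endothelial (HUVEC) and mesenchymal stem cell stroma. Each agent was tested in half-log dilutions, topping at clinical Cmax or at 10 microM without a known Cmax.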

[1] = second compound 0.1 µM, first compound 0.0316 µM
[2] = second compound 0.1 µM, first compound 0.1 µM
[3] = second compound 0.1 µM, first compound 0.316 µM
[4] = second compound 0.1 µM, first compound 1 µM
[5] = second compound 0.316 µM, first compound 0.0316 µM
[6] = second compound 0.316 µM, first compound 0.1 µM
[7] = second compound 0.316 µM, first compound 0.316 µM
[8] = second compound 0.316 µM, first compound 1 µM
[9] = second compound 1 µM, first compound 0.0316 µM
[10] = second compound 1 µM, first compound 0.1 µM
[11] = second compound 1 µM, first compound 0.316 µM
[12] = second compound 1 µM, first compound 1 µM
[13] = second compound 3.16 µM, first compound 0.0316 µM
[14] = second compound 3.16 µM, first compound 0.1 µM
[15] = second compound 3.16 µM, first compound 0.316 µM
[16] = second compound 3.16 µM, first compound 1 µM
[17] = second compound 10 µM, first compound 0.0316 µM
[18] = second compound 10 µM, first compound 0.1 µM
[19] = second compound 10 µM, first compound 0.316 µM
[20] = second compound 10 µM, first compound 1 µM
[21] = second compound 0.1 µM, first compound 3.16 µM
[22] = second compound 0.1 µM, first compound 10 µM
[23] = second compound 0.316 µM, first compound 3.16 µM
[24] = second compound 0.316 µM, first compound 10 µM
[25] = second compound 1 µM, first compound 3.16 µM
[26] = second compound 1 µM, first compound 10 µM
[27] = second compound 3.16 µM, first compound 3.16 µM
[28] = second compound 3.16 µM, first compound 10 µM
[29] = second compound 10 µM, first compound 3.16 µM
[30] = second compound 10 µM, first compound 10 µM
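Also: viability read after seven days of drug exposure.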

| Structure (SMILES) | pIC50 (second compound 0.1 µM) | pIC50 (second compound 0.316 µM) | pIC50 (second compound 1 µM) | pIC50 (second compound 3.16 µM) | pIC50 (second compound 10 µM) | viability, T/C [1] | viability, T/C [2] | viability, T/C [3] | viability, T/C [4] | viability, T/C [5] | viability, T/C [6] | viability, T/C [7] | viability, T/C [8] | viability, T/C [9] | viability, T/C [10] | viability, T/C [11] | viability, T/C [12] | viability, T/C [13] | viability, T/C [14] | viability, T/C [15] | also measured |
| --- | --- | --- | --- | --- | --- | --- | --- | --- | --- | --- | --- | --- | --- | --- | --- | --- | --- | --- | --- | --- | --- |
| CCN1CCN(Cc2ccc(Nc3ncc(F)c(-c4cc(F)c5nc(C)n(C(C)C)c5c4)n3)nc2)CC1 + COc1cc2nc(C)nc(NC(C)c3cc(N)cc(C(F)(F)F)c3)c2cc1OC1CCOC1 | < 6.00 | < 6.00 | < 6.00 | < 6.00 | 6.33 | 79.2% | 79.9% | 85.4% | 76.7% | 79.4% | 71.7% | 85.4% | 76% | 87.5% | 77.4% | 87.7% | 80.8% | 89.3% | 76.7% | 83.2% | viability, T/C (second compound 0.1 µM, first compound 0.00316 µM): 88.2%; viability, T/C (second compound 0.1 µM, first compound 0.01 µM): 84.9%; viability, T/C (second compound 0.316 µM, first compound 0.00316 µM): 92%; viability, T/C (second compound 0.316 µM, first compound 0.01 µM): 89.9%; viability, T/C (second compound 1 µM, first compound 0.00316 µM): 93.1%; viability, T/C (second compound 1 µM, first compound 0.01 µM): 80.2%; viability, T/C (second compound 3.16 µM, first compound 0.00316 µM): 90.5%; viability, T/C (second compound 3.16 µM, first compound 0.01 µM): 101%; viability, T/C [16]: 73%; viability, T/C (second compound 10 µM, first compound 0.00316 µM): 82.9%; viability, T/C (second compound 10 µM, first compound 0.01 µM): 76%; viability, T/C [17]: 74.4%; viability, T/C [18]: 91%; viability, T/C [19]: 74.7%; viability, T/C [20]: 0.5% |
| CCNC(=O)CC1N=C(c2ccc(Cl)cc2)c2cc(OC)ccc2-n2c(C)nnc21 (stereo not given) + COc1cc2nc(C)nc(NC(C)c3cc(N)cc(C(F)(F)F)c3)c2cc1OC1CCOC1 | 6.39 | 6.53 | 6.48 | 6.49 | 6.38 | 90% | 79.5% | 52.6% | 36.7% | 104% | 89.9% | 47% | 30.8% | 89.2% | 85.2% | 50.1% | 34.2% | 98.5% | 87.7% | 48.4% | viability, T/C [21]: 32.4%; viability, T/C [22]: 26.9%; viability, T/C [23]: 30%; viability, T/C [24]: 26.6%; viability, T/C [25]: 28.2%; viability, T/C [26]: 28%; viability, T/C [16]: 39.6%; viability, T/C [27]: 28%; viability, T/C [28]: 30.8%; viability, T/C [17]: 105%; viability, T/C [18]: 96.5%; viability, T/C [19]: 49.9%; viability, T/C [20]: 33.4%; viability, T/C [29]: 18.6%; viability, T/C [30]: 8.29% |
| Cn1nccc1Nc1nccc(-c2cc3c(s2)C(C)(C)N(CCN2CCOCC2)C3=O)n1 + COc1cc2nc(C)nc(NC(C)c3cc(N)cc(C(F)(F)F)c3)c2cc1OC1CCOC1 | 6.45 | 6.28 | 6.24 | 6.29 | 6.98 | 92.5% | 77.9% | 47.1% | 36.8% | 104% | 83.7% | 57.2% | 40% | 83.2% | 87.6% | 62% | 37% | 86% | 75.3% | 60.8% | viability, T/C [21]: 24.6%; viability, T/C [22]: 17.6%; viability, T/C [23]: 23.8%; viability, T/C [24]: 16.6%; viability, T/C [25]: 21.2%; viability, T/C [26]: 13.9%; viability, T/C [16]: 36.1%; viability, T/C [27]: 17.4%; viability, T/C [28]: 8.1%; viability, T/C [17]: 76.8%; viability, T/C [18]: 51%; viability, T/C [19]: 16.8%; viability, T/C [20]: 4.05%; viability, T/C [29]: 1.96%; viability, T/C [30]: 0.81% |
